Source: ChEMBL document CHEMBL4229505, “4-Aminophenyl acetamides and propanamides as potent transient receptor potential vanilloid 1 (TRPV1) ligands” (Bioorg Med Chem, 2018)
pIC50, pKi: −log10 of the molar value. The source made the active and inactive calls. No cut-off for these calls is given here.

How the values were obtained:
[1] = molecular target: T1, Transient receptor potential cation channel subfamily V member 1 (Homo sapiens, UniProt Q8NER1); experiment: Agonist activity at human TRPV1 expressed in CHO cells assessed as intracellular calcium accumulation by Fluo-4 dye based FLIPR assay; format: cell-based
T1 sequence (Q8NER1 whole entry): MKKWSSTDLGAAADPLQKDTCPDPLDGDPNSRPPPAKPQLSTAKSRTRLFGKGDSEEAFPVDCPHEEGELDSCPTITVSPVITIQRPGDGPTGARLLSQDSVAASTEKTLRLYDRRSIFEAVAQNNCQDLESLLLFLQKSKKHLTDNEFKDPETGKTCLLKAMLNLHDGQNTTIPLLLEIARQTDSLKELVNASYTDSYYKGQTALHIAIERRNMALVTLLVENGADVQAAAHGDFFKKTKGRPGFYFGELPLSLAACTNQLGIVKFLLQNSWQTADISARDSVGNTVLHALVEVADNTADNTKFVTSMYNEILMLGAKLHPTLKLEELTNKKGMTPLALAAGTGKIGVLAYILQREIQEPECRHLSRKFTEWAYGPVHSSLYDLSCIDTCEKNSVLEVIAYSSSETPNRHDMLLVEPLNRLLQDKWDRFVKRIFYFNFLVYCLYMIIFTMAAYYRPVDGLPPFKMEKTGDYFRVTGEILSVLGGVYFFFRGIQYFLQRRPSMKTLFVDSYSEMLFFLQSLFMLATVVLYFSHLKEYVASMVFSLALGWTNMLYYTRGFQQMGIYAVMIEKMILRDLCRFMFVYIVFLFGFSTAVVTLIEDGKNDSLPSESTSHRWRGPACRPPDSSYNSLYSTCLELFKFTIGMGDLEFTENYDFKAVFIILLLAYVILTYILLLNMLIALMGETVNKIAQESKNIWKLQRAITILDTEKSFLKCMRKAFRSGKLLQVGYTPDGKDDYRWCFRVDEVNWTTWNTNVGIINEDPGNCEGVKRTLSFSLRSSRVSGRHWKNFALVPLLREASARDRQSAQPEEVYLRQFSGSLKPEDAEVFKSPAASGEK

[2] = molecular target: T1, Transient receptor potential cation channel subfamily V member 1; experiment: Antagonist activity at human TRPV1 expressed in CHOK1 cells assessed as reduction in capsaicin-induced intracellular calcium level preincubated for 6 mins followed by capsaicin addition by Fluo-4 dye based FLIPR assay; format: cell-based; conditions: for pKi: read-out: Ki
[3] = molecular target: T1, Transient receptor potential cation channel subfamily V member 1; experiment: Partial agonist activity at human TRPV1 expressed in CHO cells assessed as intracellular calcium accumulation by Fluo-4 dye based FLIPR assay; format: cell-based
Mus musculus [4] = experiment: Anti-hypothermic activity in NMRI mouse assessed as inhibition of capsaicin-induced […] in body temperature at 3 mg/kg, po pretreated for 15 mins followed by capsaicin treatment measured up to 120 mins relative to control; format: functional
Mus musculus [5] = experiment: Induction of hyperthermic effect in NMRI mouse assessed as increase in body temperature at 3 mg/kg, po; format: organism-based; conditions: in vivo
[6] = molecular target: T1, Transient receptor potential cation channel subfamily V member 1; experiment: Antagonist activity at human TRPV1 expressed in CHOK1 cells assessed as reduction in heat-induced intracellular calcium level preincubated with cells for 5 mins followed by incubation under 45 degC by Fluo-4 dye based FLIPR assay; format: cell-based
Mus musculus [7] = experiment: Anti-hypothermic activity in NMRI mouse assessed as inhibition of capsaicin-induced […] in body temperature at 10 mg/kg, po pretreated for 15 mins followed by capsaicin treatment measured up to 120 mins relative to control; format: functional
[8] = molecular target: T1, Transient receptor potential cation channel subfamily V member 1; experiment: Antagonist activity at human TRPV1 expressed in CHOK1 cells assessed as reduction in NADA-induced intracellular calcium level preincubated with cells followed by NADA addition measured after 5 mins by Fluo-4 dye based FLIPR assay; format: cell-based
[9] = molecular target: T1, Transient receptor potential cation channel subfamily V member 1; experiment: Antagonist activity at human TRPV1 expressed in CHOK1 cells assessed as reduction in low pH-induced receptor activation by measuring decrease in intracellular calcium level preincubated with cells for 5 mins followed by incubation under pH 6 to 6.3 condition by Fluo-4 dye based FLIPR assay; format: cell-based

SMILES | Activity [1] | pKi [2] | also measured
CC1CCN(c2nc(C(F)(F)F)ccc2CNC(=O)C(C)c2ccc(Nc3ccccn3)cc2)CC1 (centres undefined) | Active | – | –
COc1ccc(Nc2ccc(C(C)C(=O)NCc3ccc(C(F)(F)F)nc3N3CCC(C)CC3)cc2)cc1 (centres undefined) | – | – | Activity [3]: Active
CC1CCN(c2nc(C(F)(F)F)ccc2CNC(=O)C(C)c2ccc(Nc3ccc(Cl)cc3)cc2)CC1 (centres undefined) | – | 7.18 | –
CC1CCN(c2nc(C(F)(F)F)ccc2CNC(=O)C(C)c2ccc(Nc3ccc(F)cc3)cc2)CC1 (centres undefined) | – | – | Ki [2]: Not Active
CC1CCN(c2nc(C(F)(F)F)ccc2CNC(=O)C(C)c2ccc(Nc3ccccc3)cc2)CC1 (centres undefined) | Active | – | –
COc1cc(C(C)C(=O)NCc2ccc(C(F)(F)F)nc2N2CCC(C)CC2)cc(OC)c1N (centres undefined) | – | 7.68 | –
COc1cc(C(C)C(=O)NCc2ccc(C(F)(F)F)nc2N2CCC(C)CC2)cc(F)c1N (centres undefined) | – | – | Activity [3]: Active
CC1CCN(c2nc(C(F)(F)F)ccc2CNC(=O)C(C)c2cc(Cl)c(N)c(Cl)c2)CC1 (centres undefined) | – | 8.62 | –
CC1CCN(c2nc(C(F)(F)F)ccc2CNC(=O)Cc2cc(Cl)c(N)c(Cl)c2)CC1 | – | 9.52 | inhibition in vivo at 3 mg/kg (Mus musculus [4]): 57%; deltaT (Mus musculus [5]): > 1 °C; pIC50 [6]: 7.89; inhibition in vivo at 10 mg/kg (Mus musculus [7]): 128%; pKi [8]: 9.15 to 10.00; pIC50 [9]: 6.80

More lines, main results first:

Activity [1] | pKi [2] | SMILES | also measured
Active | – | COc1cc(C(C)C(=O)NCc2ccc(C(F)(F)F)nc2N2CCC(C)CC2)ccc1N (centres undefined) | –
– | 7.28 | CC1CCN(c2nc(C(F)(F)F)ccc2CNC(=O)C(C)c2ccc(NC(=O)C(C)(C)C)c(F)c2)CC1 (centres undefined) | –
Active | – | Cc1cc(C(C)C(=O)NCc2ccc(C(F)(F)F)nc2N2CCC(C)CC2)ccc1N (centres undefined) | –
– | 7.70 | CC1CCN(c2nc(C(F)(F)F)ccc2CNC(=O)C(C)c2ccc(NC(=O)C3CC3)c(F)c2)CC1 (centres undefined) | –
– | 7.58 | CC1CCN(c2nc(C(F)(F)F)ccc2CNC(=O)C(C)c2ccc(NC(=O)C(C)C)c(F)c2)CC1 (centres undefined) | –
– | 8.13 | CC1CCN(c2nc(C(F)(F)F)ccc2CNC(=O)C(C)c2ccc(NC(=O)c3ccccc3)c(F)c2)CC1 (centres undefined) | –
Active | – | CC1CCN(c2nc(C(F)(F)F)ccc2CNC(=O)C(C)c2ccc(N)c(N)c2)CC1 (centres undefined) | –
– | 8.28 | CC1CCN(c2nc(C(F)(F)F)ccc2CNC(=O)C(C)c2cc(O)c(N)c(F)c2)CC1 (centres undefined) | –
Active | – | CC1CCN(c2nc(C(F)(F)F)ccc2CNC(=O)C(C)c2ccc(N)c(F)c2)CC1 (centres undefined) | –
